pEC50: −log10 of the molar value. Like-named read-outs stand apart in the source and are kept apart here. Square brackets hold non-standard residues; d marks the D form. Ends that are not written are not given here. Peptide text beside a SMILES is read from it. AEEA = NCCOCCOCC(=O)O
Columns and labels:
Assay type in all cases: cell-based
human CCK-B R = target: T1, human CCK-B R (Homo sapiens, UniProt P32239); experiment: Human CCK-B receptor efficacy assay (AlphaScreen SureFire p-ERK); settings: read-out: hCCK-B R EC50
T1 construct: expressed in transfected cells
T1 sequence (P32239 1-447): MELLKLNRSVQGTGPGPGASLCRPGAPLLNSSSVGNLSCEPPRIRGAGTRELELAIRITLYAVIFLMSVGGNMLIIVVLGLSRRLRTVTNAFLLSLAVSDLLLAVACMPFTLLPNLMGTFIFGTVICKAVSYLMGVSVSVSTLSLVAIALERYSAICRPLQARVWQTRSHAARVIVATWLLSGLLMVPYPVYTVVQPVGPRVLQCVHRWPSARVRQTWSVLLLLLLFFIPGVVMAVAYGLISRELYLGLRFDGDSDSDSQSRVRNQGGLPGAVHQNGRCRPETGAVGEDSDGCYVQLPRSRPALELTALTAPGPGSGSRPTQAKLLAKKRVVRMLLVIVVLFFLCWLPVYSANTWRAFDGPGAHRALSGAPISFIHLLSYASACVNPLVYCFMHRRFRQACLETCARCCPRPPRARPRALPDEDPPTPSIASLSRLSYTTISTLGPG

mouse CCK-B R = target: T2, mouse CCK-B R (Mus musculus, UniProt P56481); experiment: Mouse CCK-B receptor efficacy assay (AlphaScreen SureFire p-ERK)
T2 construct: expressed in transfected cells
T2 sequence (P56481 1-453): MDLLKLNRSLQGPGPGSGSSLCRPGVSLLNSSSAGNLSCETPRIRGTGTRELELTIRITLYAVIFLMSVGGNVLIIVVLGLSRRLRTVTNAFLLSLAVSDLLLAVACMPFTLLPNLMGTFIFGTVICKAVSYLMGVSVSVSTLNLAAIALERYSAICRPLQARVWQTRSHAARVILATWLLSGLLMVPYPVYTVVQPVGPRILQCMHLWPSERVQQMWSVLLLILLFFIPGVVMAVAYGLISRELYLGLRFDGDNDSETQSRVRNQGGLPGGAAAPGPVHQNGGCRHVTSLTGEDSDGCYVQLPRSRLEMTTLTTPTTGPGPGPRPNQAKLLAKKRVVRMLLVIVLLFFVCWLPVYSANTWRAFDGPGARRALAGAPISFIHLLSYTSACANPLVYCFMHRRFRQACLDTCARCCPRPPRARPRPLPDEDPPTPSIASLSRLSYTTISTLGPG
Text: CCK-B Receptor (CCK-B R) Efficacy Assay:
To test binding and activation of CCK-B R we produced stable cell lines expressing one of the human or mouse CCK receptors in a manner similar to that for production of the hGLP-1 R cell lines were generated (vide supra). In brief, we used HEK293 cells for transfection of the cDNA for human or mouse CCK-A R or CCK-B R [hCCK-A R (gene identity: L19315), hCCK-B R (NM_176875), mCCK-A R (NM_009827) and mCCK-B R (NM_007627)] all cloned into the transfection plasmid pIRESneo2dNGFR. The cells were grown according to standard protocol in growth medium and transfected with the plasmids using Lipofectamin (Invitrogen). The cells stably expressing CCK receptors were selected using G418 in the growth medium (only cells that have taken up and incorporated the cDNA expression plasmid survive) and propagated. Stocks of cells were frozen for later use.
In vitro effects of peptide conjugates of the invention were estimated by measuring p-ERK (using the AlphaScreen™ SureFire p-ERK assay) in HEK293 cells stably expressing the human and mouse CCK-B R (high-affinity Gastrin receptor), respectively. The Gastrin receptor efficacy assays (AlphaScreen™ SureFire p-ERK assay) were performed as follows:
The CCK-B R expressing cells in question were seeded at 20,000 cells/well in 100 μl growth medium [DMEM, 10% FCS, Penicillin (100 IU/ml), Streptomycin (100 μg/ml)] in a 96-well plate coated with poly-D-lysine. The cells were incubated in an incubator (37° C., 5% […]) for two days.
The growth medium was changed to 80 μl of serum-free medium [DMEM, Penicillin (100 IU/ml), Streptomycin (100 μg/ml)] per well, and incubation of the cells was continued for 19 hours in the incubator (37° C., 5% CO2).
• 1. After 19 hours, 20 μl of serum-free medium containing one of 5 different concentrations of peptide conjugate was added (performed in triplicate for each concentration), and the cells were incubated for 5 min. at room temperature. • 2. The stimulation medium was discarded by quickly turning the plate upside down, and 60 μl 1× lysis buffer (from the SureFire assay kit) was added per well. • 3. The plate was shaken on a plate-shaker for 5 min and then placed on ice. • 4. SureFire P-ERK assay: 4 μl of each supernatant was transferred to a 384 well proxiplate (Perkin Elmer). • 5. 4 μl of each of the two control lysates (unstimulated and stimulated) were added to the proxiplate in duplicate. • 6. […] 7 μl of the latter reaction buffer+activation buffer+beads per well were added in the proxiplate, the mix being resuspended carefully before addition to the wells. • 7. The plate was incubated for 2 hours in a dark box in a 22° C. incubator. • 8. The plate was analyzed on an Envision™ light-emission plate reader (Perkin-Elmer) using the appropriate reading program (Perkin-Elmer).

human GLP-1 R = target: T3, human GLP-1 R (Homo sapiens, UniProt P43220); experiment: Human GLP-1 receptor efficacy assay (cAMP induction, FlashPlate); settings: Table 2; read-out: hGLP-1 R EC50
T3 construct: expressed in transfected cells
T3 sequence (P43220 24-463): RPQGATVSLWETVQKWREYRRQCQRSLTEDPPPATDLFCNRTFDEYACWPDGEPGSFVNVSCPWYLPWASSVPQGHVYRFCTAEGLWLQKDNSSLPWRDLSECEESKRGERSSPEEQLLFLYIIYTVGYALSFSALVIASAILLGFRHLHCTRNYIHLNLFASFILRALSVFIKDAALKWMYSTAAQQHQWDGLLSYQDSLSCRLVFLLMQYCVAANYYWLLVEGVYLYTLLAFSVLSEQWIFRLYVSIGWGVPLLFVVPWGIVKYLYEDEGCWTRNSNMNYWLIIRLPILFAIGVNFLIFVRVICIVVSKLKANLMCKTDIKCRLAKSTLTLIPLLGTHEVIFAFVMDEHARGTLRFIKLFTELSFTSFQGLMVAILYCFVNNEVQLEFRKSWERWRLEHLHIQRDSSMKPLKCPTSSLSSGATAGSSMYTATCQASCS
Experimental: On the day of analysis, growth medium was removed and the cells were washed once with 200 μl Tyrode buffer [Tyrode's Salts (9.6 g/l), 10 mM HEPES, pH 7.4]. […] The reaction was stopped by addition of 25 μl 0.5 M HCl and incubated on ice for 60 min.

[1] = Table 1, HEK293 cells expressing human CCK-B R, p-ERK
[2] = Table 1, HEK293 cells expressing mouse CCK-B R, p-ERK, read-out: mCCK-B R EC50

Row | Molecule | pEC50 (human CCK-B R; [1]) | pEC50 (mouse CCK-B R; [2]) | pEC50 (mouse CCK-B R) | pEC50 (human GLP-1 R) | pEC50 (human CCK-B R; Table 2)
1 | CC[C@H](C)[C@H](NC(=O)[C@H](Cc1ccccc1)NC(=O)[C@H](CCC(=O)O)NC(=O)[C@H](CCCCN)NC(=O)[C@H](C)NC(=O)[C@H](C)NC(=O)[C@H](CCC(N)=O)NC(=O)CNC(=O)[C@H](CCC(=O)O)NC(=O)[C@H](CC(C)C)NC(=O)[C@H](Cc1ccc(O)cc1)NC(=O)[C@H](CO)NC(=O)[C@H](CO)NC(=O)[C@@H](NC(=O)[C@H](CC(=O)O)NC(=O)[C@H](CO)NC(=O)[C@@H](NC(=O)[C@H](Cc1ccccc1)NC(=O)[C@@H](NC(=O)CNC(=O)[C@H](CCC(=O)O)NC(=O)[C@H](C)NC(=O)[C@@H](N)Cc1c[nH]cn1)[C@@H](C)O)[C@@H](C)O)C(C)C)C(=O)N[C@@H](C)C(=O)N[C@@H](Cc1c[nH]c2ccccc12)C(=O)N[C@@H](CC(C)C)C(=O)N[C@H](C(=O)N[C@@H](CCCCN)C(=O)NCC(=O)N[C@@H](CCCNC(=N)N)C(=O)NCCc1cccc2c1oc1c(CCC(=O)N[C@@H](CO)C(=O)N[C@@H](CCCCN)C(=O)N[C@@H](CCCCN)C(=O)N[C@@H](CCC(N)=O)C(=O)NCC(=O)N3CCC[C@H]3C(=O)N[C@@H](Cc3c[nH]c4ccccc34)C(=O)N[C@@H](CC(C)C)C(=O)N[C@@H](CCC(=O)O)C(=O)N[C@@H](CCC(=O)O)C(=O)N[C@@H](CCC(=O)O)C(=O)N[C@@H](CCC(=O)O)C(=O)N[C@@H](CCC(=O)O)C(=O)N[C@@H](C)C(=O)N[C@@H](Cc3ccc(O)cc3)C(=O)NCC(=O)N[C@@H](Cc3c[nH]c4ccccc34)C(=O)N[C@@H](CC(C)C)C(=O)N[C@@H](CC(=O)O)C(=O)N[C@@H](Cc3ccccc3)C(N)=O)cccc12)C(C)C [Compound 44, GLP-1(7-36)-DBF-SKK-[Gln1,Leu15]Gastrin17] | 7.59 | 7.06 |  |  | 
2 | CC[C@H](C)[C@H](NC(=O)[C@H](Cc1ccccc1)NC(=O)[C@H](CCC(=O)O)NC(=O)[C@H](CCCCN)NC(=O)[C@H](C)NC(=O)[C@H](C)NC(=O)[C@H](CCC(N)=O)NC(=O)CNC(=O)[C@H](CCC(=O)O)NC(=O)[C@H](CC(C)C)NC(=O)[C@H](Cc1ccc(O)cc1)NC(=O)[C@H](CO)NC(=O)[C@H](CO)NC(=O)[C@@H](NC(=O)[C@H](CC(=O)O)NC(=O)[C@H](CO)NC(=O)[C@@H](NC(=O)[C@H](Cc1ccccc1)NC(=O)[C@@H](NC(=O)CNC(=O)[C@H](CCC(=O)O)NC(=O)[C@H](C)NC(=O)[C@@H](N)Cc1c[nH]cn1)[C@@H](C)O)[C@@H](C)O)C(C)C)C(=O)N[C@@H](C)C(=O)N[C@@H](Cc1c[nH]c2ccccc12)C(=O)N[C@@H](CC(C)C)C(=O)N[C@H](C(=O)N[C@@H](CCCCN)C(=O)NCC(=O)N[C@@H](CCCNC(=N)N)C(=O)NCCOCCOCC(=O)N[C@@H](CO)C(=O)N[C@@H](CCCCN)C(=O)N[C@@H](CCCCN)C(=O)N[C@@H](CCC(N)=O)C(=O)NCC(=O)N1CCC[C@H]1C(=O)N[C@@H](Cc1c[nH]c2ccccc12)C(=O)N[C@@H](CC(C)C)C(=O)N[C@@H](CCC(=O)O)C(=O)N[C@@H](CCC(=O)O)C(=O)N[C@@H](CCC(=O)O)C(=O)N[C@@H](CCC(=O)O)C(=O)N[C@@H](CCC(=O)O)C(=O)N[C@@H](C)C(=O)N[C@@H](Cc1ccc(O)cc1)C(=O)NCC(=O)N[C@@H](Cc1c[nH]c2ccccc12)C(=O)N[C@@H](CC(C)C)C(=O)N[C@@H](CC(=O)O)C(=O)N[C@@H](Cc1ccccc1)C(N)=O)C(C)C [Compound 41, GLP-1(7-36)-Peg3-SKK-[Gln1,Leu15]Gastrin17] | 8.06 | 7.29 |  |  | 
3 | CC[C@H](C)[C@H](NC(=O)[C@H](Cc1ccccc1)NC(=O)[C@H](CCC(=O)O)NC(=O)[C@H](CCCCN)NC(=O)[C@H](C)NC(=O)[C@H](C)NC(=O)[C@H](CCC(N)=O)NC(=O)CNC(=O)[C@H](CCC(=O)O)NC(=O)[C@H](CC(C)C)NC(=O)[C@H](Cc1ccc(O)cc1)NC(=O)[C@H](CO)NC(=O)[C@H](CO)NC(=O)[C@@H](NC(=O)[C@H](CC(=O)O)NC(=O)[C@H](CO)NC(=O)[C@@H](NC(=O)[C@H](Cc1ccccc1)NC(=O)[C@@H](NC(=O)CNC(=O)[C@H](CCC(=O)O)NC(=O)[C@H](C)NC(=O)[C@@H](N)Cc1c[nH]cn1)[C@@H](C)O)[C@@H](C)O)C(C)C)C(=O)N[C@@H](C)C(=O)N[C@@H](Cc1c[nH]c2ccccc12)C(=O)N[C@@H](CC(C)C)C(=O)N[C@H](C(=O)N[C@@H](CCCCN)C(=O)NCC(=O)N[C@@H](CCCNC(=N)N)C(=O)NCCCCCCCC(=O)N[C@@H](CO)C(=O)N[C@@H](CCCCN)C(=O)N[C@@H](CCCCN)C(=O)N[C@@H](CCC(N)=O)C(=O)NCC(=O)N1CCC[C@H]1C(=O)N[C@@H](Cc1c[nH]c2ccccc12)C(=O)N[C@@H](CC(C)C)C(=O)N[C@@H](CCC(=O)O)C(=O)N[C@@H](CCC(=O)O)C(=O)N[C@@H](CCC(=O)O)C(=O)N[C@@H](CCC(=O)O)C(=O)N[C@@H](CCC(=O)O)C(=O)N[C@@H](C)C(=O)N[C@@H](Cc1ccc(O)cc1)C(=O)NCC(=O)N[C@@H](Cc1c[nH]c2ccccc12)C(=O)N[C@@H](CC(C)C)C(=O)N[C@@H](CC(=O)O)C(=O)N[C@@H](Cc1ccccc1)C(N)=O)C(C)C [Compound 43, GLP-1(7-36)-8Aoc-SKK-[Gln1,Leu15]Gastrin17] | 7.28 | 7.08 |  |  | 
4 | QGPWLEEEEEAYGWLDF-NH2 [h[Gln1,Leu15]Gastrin17, reference compound] |  |  | 7.74 |  | 
5 | CC[C@H](C)[C@H](NC(=O)[C@H](Cc1ccccc1)NC(=O)[C@H](CC(C)C)NC(=O)[C@H](CCCNC(=N)N)NC(=O)[C@@H](NC(=O)[C@H](C)NC(=O)[C@H](CCC(=O)O)NC(=O)[C@H](CCCCN)NC(=O)[C@H](CCC(=O)O)NC(=O)[C@H](CC(C)C)NC(=O)[C@H](Cc1ccc(O)cc1)NC(=O)[C@H](CCCNC(=N)N)NC(=O)[C@H](CO)NC(=O)[C@H](CC(C)C)NC(=O)[C@H](CC(=O)O)NC(=O)[C@H](CO)NC(=O)[C@@H](NC(=O)[C@H](Cc1ccccc1)NC(=O)[C@@H](NC(=O)CNC(=O)[C@H](CCC(=O)O)NC(=O)CNC(=O)[C@@H](N)Cc1c[nH]cn1)[C@@H](C)O)[C@@H](C)O)C(C)C)C(=O)N[C@@H](CCC(=O)O)C(=O)N[C@@H](Cc1ccccc1)C(=O)N[C@@H](CC(C)C)C(=O)N[C@@H](CCCNC(=N)N)C(=O)NCCOCCOCC(=O)N[C@@H](Cc1ccc(O)cc1)C(=O)NCC(=O)N[C@@H](Cc1c[nH]c2ccccc12)C(=O)N[C@@H](CC(C)C)C(=O)N[C@@H](CC(=O)O)C(=O)N[C@@H](Cc1ccccc1)C(N)=O [Compound 92, [Arg12,27,Leu14,Lys16,Phe25,Tyr13]Exendin-4(1-27)-Peg3-[Leu4]Gastrin6] (H-HGEGTFTSDLSRYLEKEAVRLFIEFLR[AEEA]YGWLDF-NH2) |  |  |  | 9.77 | 7.59

Source: patent US10406207B2, “Peptide conjugates of GLP-1 receptor agonists and gastrin and their use” (priority 2010, dated 2019)
